From patent US6548533B2, “Ureido substituted pyrrolidines” (Aventis Pharma Limited, priority 1999, dated 2003)

| SMILES | melting point |
| --- | --- |
| COc1cc(CC(=O)Nc2ccc(C3CN(C(=O)c4ccccc4)CC3C(=O)O)cc2)ccc1NC(=O)Nc1ccccc1C (centres unmarked) [Example 2, 1-Benzoyl-4-(4-{2-[3-methoxy-4-(3-o-tolyl-ureido)-phenyl]-acetylamino}-phenyl)-pyrrolidine-3-carboxylic Acid] | 248 °C |
| COc1cc(CC(=O)Nc2ccc(C3CN(C(=O)CCC(=O)O)CC3C(=O)O)cc2)ccc1NC(=O)Nc1ccccc1C (centres unmarked) [Example 3, 1-(3-Carboxy-propionyl)-4-(4-{2-[3-methoxy-4-(3-o-tolyl-ureido)-phenyl]-acetylamino}-phenyl)-pyrrolidine-3-carboxylic Acid] | 184 °C |

Continued, values first:

| melting point | SMILES |
| --- | --- |
| 242 °C | COc1cc(CC(=O)Nc2ccc(C3CN(C(C)=O)CC3C(=O)O)cc2)ccc1NC(=O)Nc1ccccc1C (centres unmarked) [Example 1, 1-Acetyl-4-(4-{2-[3-methoxy-4-(3-o-tolyl-ureido)-phenyl]-acetylamino}-phenyl)-pyrrolidine-3-carboxylic Acid] |
| 255 °C | COc1cc(CC(=O)Nc2ccc(C3CN(Cc4ccccc4)CC3C(=O)O)cc2)ccc1NC(=O)Nc1ccccc1C (centres unmarked) [Example 5, 1-Benzyl-4-(4-{2-[3-methoxy-4-(3-o-tolyl-ureido)-phenyl]-acetylamino}-phenyl)-pyrrolidine-3-carboxylic Acid] |
| 155 °C (dec.) | COc1cc(CC(=O)Nc2ccc(C3C(C(=O)O)CCN3C(=O)c3ccccc3)cc2)ccc1NC(=O)Nc1ccccc1C (centres unmarked) [Example 4, 1-Benzoyl-2-(4-{2-[3-methoxy-4-(3-o-tolyl-ureido)-phenyl]-acetylamino}-phenyl)-pyrrolidine-3-carboxylic Acid] |
